Measured values taken from US20090270435A1 (priority 2006, published 2009).
Structures can show the parent of a compound that is named as a salt.

molecular target: T1, ACC1 from rat liver (Rattus norvegicus, UniProt P11497); experiment: Direct inhibition of ACC1 activity (14C-bicarbonate incorporation); type: biochemical; conditions: ACC1 from rat liver
T1 construct: The livers (for ACC1 preparation) or skeletal muscle tissue (for ACC2 preparation) are removed; from tissue; host or cells: liver of male CD rats (fasted, then fed a high sucrose diet)
Method in brief: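 ACC1 partially purified from livers of fasted/sucrose-refed male rats by PEG and ammonium sulfate fractionation, then preincubated 30 min at 37°C with 10 mM citrate and 1.0 mM MgCl2. Reaction ran 7 min at 37°C, stopped with HCl; acid-stable radioactivity counted by scintillation; HCl-first tubes served as blanks.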

Compound	IC50
Cc1cc(C(=O)N2CCC3(CC2)CC(=O)c2ccc(Cl)cc2O3)cc2cn[nH]c12 [Ex. A17, 7-chloro-1′-[(7-methyl-1H-indazol-5-yl)carbonyl]spiro[chromene-2,4′-piperidin]-4(3H)-one]	70.5 nM
Cc1cc(C(=O)N2CCC3(CC2)CC(=O)c2cc(Cl)ccc2O3)cc2cn[nH]c12 [Ex. A26, 6-chloro-1′-[(7-methyl-1H-indazol-5-yl)carbonyl]spiro[chromene-2,4′-piperidin]-4(3H)-one]	113 nM
COc1ccc2c(c1F)C(=O)CC1(CCN(C(=O)c3cc(Cl)c4[nH]ncc4c3)CC1)O2 [Ex. B11]	217 nM
Cc1cc2c(cc1C)C(=O)CC1(CCN(C(=O)c3ccc4cn[nH]c4c3)CC1)O2 [Ex. G1, 1-(1H-indazol-6-ylcarbonyl)-6,7-dimethylspiro[chromene-2,4′-piperidin]-4(3H)-one trifluoroacetic acid salt]	271 nM
Cc1cc2c(cc1Cl)C(=O)CC1(CCN(C(=O)c3ccc4c(C)n[nH]c4c3)CC1)O2 [Ex. F3, 6-chloro-7-methyl-1′-[(3-methyl-1H-indazol-6-yl)carbonyl]spiro[chromene-2,4′-piperidin]-4(3H)-one]	107 nM
CCc1cc(C(=O)N2CCC3(CC2)CC(=O)c2cc(C)c(C)cc2O3)cc2cn[nH]c12 [Ex. C1, 1′-[(7-ethyl-1H-indazol-5-yl)carbonyl]-6,7-dimethylspiro[chromene-2,4′-piperidin]-4(3H)-one]	17.5 nM
COC(=O)c1ccc2c(c1)C(=O)CC1(CCN(C(=O)c3ccc4c(C)n[nH]c4c3)CC1)O2 [Ex. F4, methyl 1′-[(3-methyl-1H-indazol-6-yl)carbonyl]-4-oxo-3,4-dihydrospiro[chromene-2,4′-piperidine]-6-carboxylate]	126 nM
O=C1CC2(CCN(C(=O)c3cc(Cl)c4[nH]ncc4c3)CC2)Oc2ccc(C(F)(F)F)cc21 [Ex. B12, 1′-[(7-chloro-1H-indazol-5-yl)carbonyl]-6-(trifluoromethyl)spiro[chromene-2,4′-piperidin]-4(3H)-one]	257 nM
O=C1CC2(CCN(C(=O)c3cccc4cn[nH]c34)CC2)Oc2ccccc21	3540 nM

The next lines start with the values.

IC50	Compound
345 nM	Cc1cc2c(cc1Cl)C(=O)CC1(CCN(C(=O)c3cc(Br)cc4cn[nH]c34)CC1)O2 [Ex. J1, 1′-[(5-bromo-1H-indazol-7-yl)carbonyl]-6-chloro-7-methylspiro[chromene-2,4′-piperidin]-4(3H)-one]
4860 nM	Cc1cc2c(cc1Cl)C(=O)CC1(CCN(C(=O)c3ccc4[nH]nnc4c3)CC1)O2 [Ex. L40, 1′-(1H-1,2,3-benzotriazol-5-ylcarbonyl)-6-chloro-7-methylspiro[chromene-2,4′-piperidin]-4(3H)-one]
321 nM	Cc1cc2c(cc1Cl)C(=O)CC1(CCN(C(=O)c3cccc4cn[nH]c34)CC1)O2 [Ex. H5, 6-chloro-1′-(1H-indazol-7-ylcarbonyl)-7-methylspiro[chromene-2,4′-piperidin]-4(3H)-one]
3150 nM	Cc1cc2c(cc1C)C(=O)CC1(CCN(C(=O)c3ccc4c(c3)nc(C)n4C)CC1)O2 [Ex. L28, 1′-[(1,2-dimethyl-1H-benzimidazol-5-yl)carbonyl]-6,7-dimethylspiro[chromene-2,4′-piperidin]-4(3H)-one]
670 nM	Cc1cc2c(cc1C)C(=O)CC1(CCN(C(=O)c3cccc4c3ncn4C(C)C)CC1)O2 [Ex. L21, 1′-[(1-isopropyl-1H-benzimidazol-4-yl)carbonyl]-6,7-dimethylspiro[chromene-2,4′-piperidin]-4(3H)-one trifluoroacetic acid salt]
375 nM	Cc1cc2c(cc1Cl)C(=O)CC1(CCN(C(=O)c3cccc4[nH]ncc34)CC1)O2 [Ex. J2, 6-chloro-1′-(1H-indazol-4-ylcarbonyl)-7-methylspiro[chromene-2,4′-piperidin]-4(3H)-one]
< 3000 nM	Cc1cc2c(cc1C)C(=O)CC1(CCN(C(=O)c3ccc4nccnc4c3)CC1)O2 [Ex. L45, 6,7-dimethyl-1′-(quinoxalin-6-ylcarbonyl)spiro[chromene-2,4′-piperidin]-4(3H)-one]
< 1000 nM	Cn1ccc2ccc(C(=O)N3CCC4(CC3)CC(=O)c3cc(Cl)ccc3O4)cc21 [Ex. L5, 6-chloro-1′-[(1-methyl-1H-indol-6-yl)carbonyl]spiro[chromene-2,4′-piperidin]-4(3H)-one]
1480 nM	5,7-dichloro-1′-(1H-indazol-7-ylcarbonyl)spiro[chromene-2,4′-piperidin]-4(3H)-one [Ex. H15]
65 nM	COc1cccc2c1C(=O)CC1(CCN(C(=O)c3ccc4[nH]c5c(c4c3)CCCC5)CC1)O2 [Ex. L16, 5-methoxy-1′-(2,3,4,9-tetrahydro-1H-carbazol-6-ylcarbonyl)spiro[chromene-2,4′-piperidin]-4(3H)-one]
190 nM	Cc1cc2c(cc1C)C(=O)CC1(CCN(C(=O)c3ccc4c(c3)[nH]c(=O)n4C)CC1)O2 [Ex. L32, 6,7-dimethyl-1′-[(1-methyl-2-oxo-2,3-dihydro-1H-benzimidazol-5-yl)carbonyl]spiro[chromene-2,4′-piperidin]-4(3H)-one]

same assay, conditions: Table of Examples M1-M36

IC50	Compound
350 nM	CC(C)NC(=O)c1ccc2c(c1)C(=O)CC1(CCN(C(=O)c3cccc(-c4cc[nH]n4)c3)CC1)O2 [Ex. M17, N-isopropyl-4-oxo-1′-[3-(1H-pyrazol-3-yl)benzoyl]3,4-dihydrospiro[chromene-2,4′-piperidine]-6-carboxamide]
574 nM	CN(C)C(=O)c1ccc2c(c1)C(=O)CC1(CCN(C(=O)c3cccc(-c4cc[nH]n4)c3)CC1)O2 [Ex. M29, N,N-dimethyl-4-oxo-1′-[3-(1H-pyrazol-3-yl)benzoyl]-3,4-dihydrospiro[chromene-2,4′-piperidine]-6-carboxamide]
817 nM	O=C1CC2(CCN(C(=O)c3cccc(-c4cc[nH]n4)c3)CC2)Oc2cc(F)ccc21 [Ex. M34, 7-Fluoro-1′-[3-(1H-pyrazol-3-yl)benzoyl]spiro[chromene-2,4′-piperidin]-4(3H)-one]
478 nM	O=C1CC2(CCN(C(=O)c3cccc(-c4cc[nH]n4)c3)CC2)Oc2cc(F)c(Cl)cc21 [Ex. M24, 6-chloro-7-fluoro-1′-[3-(1H-pyrazol-3-yl)benzoyl]spiro[chromene-2,4′-piperidin]-4(3H)-one]

same assay, conditions: Table of Examples O1-O4

IC50	Compound
468 nM	COc1cc(C)c2c(c1)OC1(CCN(C(=O)c3cccc(-c4ccn[nH]4)c3)CC1)CC2=O [Ex. O4, 7-methoxy-5-methyl-1′-[3-(1H-pyrazol-5-yl)benzoyl]spiro[chromene-2,4′-piperidin]-4(3H)-one]

same assay, conditions: Table of Examples P1-P15

IC50	Compound
< 3000 nM	Cc1cc2c(cc1C)C(=O)CC1(CCN(C(=O)c3cc(-c4ccnn4C)ccc3Cl)CC1)O2 [Ex. P10, 1′-[2-chloro-5-(1-methyl-1H-pyrazol-5-yl)benzoyl]-6,7-dimethylspiro[chromene-2,4′-piperidin]-4(3H)-one]
215 nM	Cc1cc2c(cc1C)C(=O)CC1(CCN(C(=O)c3cccc(-c4cc(C(F)(F)F)[nH]n4)c3)CC1)O2 [Ex. P1, 6,7-dimethyl-1′-{3-[5-(trifluoromethyl)-1H-pyrazol-3-yl]benzoyl}spiro-[chromene-2,4′-piperidin]-4(3H)-one]
< 3000 nM	Cc1cc2c(cc1C)C(=O)CC1(CCN(C(=O)c3cc(-c4cc[nH]n4)ccc3O)CC1)O2 [Ex. P6, 1′-[2-hydroxy-5-(1H-pyrazol-3-yl)benzoyl]-6,7-dimethylspiro[chromene-2,4′-piperidin]-4(3H)-one trifluoroacetic acid salt]
